Measured values from patent US20060210627A1, “Direct compression formulation and process” (priority 2005, published 2006).

Key:
[1] = Water sorption/desorption isotherm (dynamic vapor sorption, DVS-1); type: physicochemical; conditions: 25° C.; for moisture gain: at 85% RH
Protocol: Measurements were carried out at 25° C.

[2] = Water solubility (statement); type: physicochemical
[3] = Pharmacokinetic drug-drug interaction study of vildagliptin 100 mg qd and metformin 1000 mg qd in patients with type 2 diabetes; type: in vivo; conditions: human, plasma, single oral dose of 100 mg, concomitantly with 1000 mg of metformin
Protocol: Subjects are given an end-of-study evaluation on the last day of period 2 (Day 20). For all treatment periods, subjects fasted for a minimum of 10 hours pre-dose to 4 hours post-dose. Subjects are considered to have completed the study when all safety and pharmacokinetic evaluations have been completed.
The pharmacokinetic profiles are illustrated in FIG. 5.

clinical [4] = conditions: human, plasma, po
clinical [5] = conditions: human, plasma, po; remark: listed apart in the source

Q: Which results are given for `N#C[C@@H]1CCCN1C(=O)CNC12CC3CC(CC(O)(C3)C1)C2` [Crystalline vildagliptin Form A, 1-[(3-Hydroxy-adamant-1-ylamino)-acetyl]-pyrrolidine-2(S)-carbonitrile]?
A: hygroscopicity [1]: only very slightly hygroscopic; moisture gain [1]: 0.9%

Q: What does the source list for `N#C[C@@H]1CCCN1C(=O)CNC12CC3CC(CC(O)(C3)C1)C2` [vildagliptin, (S)-1-[(3-hydroxy-1-adamantyl)amino]acetyl-2-cyano-pyrrolidine]?
A: water solubility [2]: highly water soluble; AUC(0-t) [3]: 1840 ng·h/mL; Tmax [3]: 2.5 h; Tmax (clinical [4]): 1 h; AUC(0-inf) (clinical [5]; 25 mg): 461 ± 91 ng·h/mL; AUC(0-t) (clinical [5]; 25 mg): 453 ± 91 ng·h/mL; Cmax (clinical [5]; 25 mg): 117 ± 41 ng/mL; Tmax (clinical [5]; 25 mg, tmax (h) median (min, max), single oral 25 mg FMI tablet, healthy volunteers): 1.5 h; AUC(0-inf) (clinical [5]; 50 mg): 1030 ng·h/mL; AUC(0-t) (clinical [5]; 50 mg): 1020 ± 193 ng·h/mL; Cmax (clinical [5]; 50 mg): 245 ± 87 ng/mL; Tmax (clinical [5]; 50 mg, arithmetic mean tmax of vildagliptin, single oral dose of 50 mg, healthy human subject): 2.1 h; Tmax (clinical [5]; 50 mg, tmax (h) median (min, max), single oral 50 mg FMI tablet, healthy volunteers): 1.5 h; AUC(0-inf) (clinical [5]; 100 mg): 2350 ng·h/mL; AUC(0-t) (clinical [5]; 100 mg): 2330 ± 278 ng·h/mL; Tmax (clinical [5]; 100 mg, arithmetic mean tmax of vildagliptin, single oral dose of 100 mg, healthy human subject): 2 h; Tmax (clinical [5]; 100 mg, tmax (h) median (min, max), single oral 100 mg FMI tablet, healthy volunteers): 1.75 h; AUC(0-inf) (clinical [5]; 200 mg): 5080 ± 721 ng·h/mL; AUC(0-t) (clinical [5]; 200 mg): 5060 ± 722 ng·h/mL; Cmax (clinical [5]; 200 mg): 1100 ± 280 ng/mL; Tmax (clinical [5]; 200 mg, tmax (h) median (min, max), single oral 200 mg FMI tablet, healthy volunteers): 1.25 h

Q: With `N#C[C@@H]1CCCN1C(=O)CNC12CC3CC(CC(O)(C3)C1)C2` [vildagliptin amorphous form] as the molecule, how does the hygroscopicity [1] read?
A: hygroscopic

Q: What about the moisture gain [1] of the same molecule?
A: 4.2%
